The numbers were not newly measured in US10933021B2, “Compositions of gallium (III) complexes for oral administration” (Altum Pharmaceuticals Inc., priority 2017, dated 2021), which cites them from elsewhere.

The structures appear in SMILES notation.

The conditions of series [1]: pH values below the pKa of 8-hydroxyquinoline (5.01).
For series [2], the system named is tumor cell lines resistant to gallium nitrate.
The conditions of series [3]: seven patients, oral enteric coated tablets of crystalline GaQ3, 10 mg, 20 mg, 30 mg strengths.
For series [4], the target named is albumin (Homo sapiens, UniProt P02768). The following applies: human serum.
The target of series [5] is transferrin (Tf) (Homo sapiens, UniProt P02787). The following applies: human serum.
Series [6] concerns apoptosis induction. The following applies: compared to simple gallium salts such as gallium nitrate.
The conditions of series [7]: pH 7.4, serum.

Chain of transferrin (Tf) (P02787 20-698): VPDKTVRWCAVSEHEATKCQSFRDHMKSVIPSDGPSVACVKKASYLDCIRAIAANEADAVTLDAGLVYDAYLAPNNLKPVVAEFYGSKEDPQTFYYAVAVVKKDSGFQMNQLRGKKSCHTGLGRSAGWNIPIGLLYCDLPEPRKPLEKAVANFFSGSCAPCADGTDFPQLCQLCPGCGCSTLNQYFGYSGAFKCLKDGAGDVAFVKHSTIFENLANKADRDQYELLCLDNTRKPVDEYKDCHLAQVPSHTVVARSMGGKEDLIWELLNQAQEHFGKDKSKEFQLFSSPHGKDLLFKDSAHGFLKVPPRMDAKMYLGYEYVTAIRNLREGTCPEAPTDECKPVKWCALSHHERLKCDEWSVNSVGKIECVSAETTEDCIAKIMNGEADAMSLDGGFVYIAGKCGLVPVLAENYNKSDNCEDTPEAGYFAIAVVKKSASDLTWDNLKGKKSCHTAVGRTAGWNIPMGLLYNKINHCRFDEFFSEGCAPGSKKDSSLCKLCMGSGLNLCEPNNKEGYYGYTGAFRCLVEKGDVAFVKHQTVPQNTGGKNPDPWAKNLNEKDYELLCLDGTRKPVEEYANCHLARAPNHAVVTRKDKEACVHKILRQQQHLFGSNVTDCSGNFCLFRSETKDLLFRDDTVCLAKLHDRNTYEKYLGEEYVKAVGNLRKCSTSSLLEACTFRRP
Chain of albumin (P02768 25-609): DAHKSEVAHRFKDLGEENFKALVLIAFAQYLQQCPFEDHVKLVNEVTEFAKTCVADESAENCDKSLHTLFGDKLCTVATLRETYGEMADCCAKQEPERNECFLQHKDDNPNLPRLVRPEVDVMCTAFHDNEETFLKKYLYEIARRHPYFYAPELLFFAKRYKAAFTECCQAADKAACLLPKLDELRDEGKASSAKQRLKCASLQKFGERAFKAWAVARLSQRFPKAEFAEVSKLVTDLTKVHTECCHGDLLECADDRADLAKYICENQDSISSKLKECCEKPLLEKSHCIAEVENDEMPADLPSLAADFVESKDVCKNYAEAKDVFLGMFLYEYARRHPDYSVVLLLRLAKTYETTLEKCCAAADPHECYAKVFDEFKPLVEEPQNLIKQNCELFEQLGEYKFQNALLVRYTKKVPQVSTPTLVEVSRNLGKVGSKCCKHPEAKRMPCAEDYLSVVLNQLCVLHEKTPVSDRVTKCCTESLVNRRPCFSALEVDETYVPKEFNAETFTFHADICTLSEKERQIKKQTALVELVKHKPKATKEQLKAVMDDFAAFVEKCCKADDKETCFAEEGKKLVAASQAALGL

With `[Ga+3].[O-]c1cccc2cccnc12.[O-]c1cccc2cccnc12.[O-]c1cccc2cccnc12` [GaQ3, tris (8-quinolinolato) gallium (III)], the solubility in water is recorded as 18-22 ppm. Besides, the “integrity of complexed structure” value in series [1] is “disrupted completely”. For the same compound, in series [2], the “activity against tumor cell lines resistant to gallium nitrate” value is on record as “active”. Also, the tolerability result in series [3] is “well tolerated”. Besides, the binding to albumin result in series [4] was “binds very weakly”. Further, the “binding to transferrin (Tf)” value in series [5] was “strongly”. Also, in series [6], the “apoptosis induction relative to gallium nitrate” value is “ca. 3 ×”. In addition, the stability in serum entry in series [7] is listed as “very stable”.
